According to patent US20230293680A1, “A COMPOSITION OF ANTI-DR5 ANTIBODIES AND AN IMMUNOMODULATORY IMIDE DRUG FOR USE IN TREATING MULTIPLE MYELOMA” (Genmab B.V., priority 2020, published 2023):
Read-outs that look alike come from different tables or passages of the source.

Tests used:
NCI-H929 cells [1] = assay: viability of lenalidomide-preincubated NCI-H929 cells; format: cell-based, human; conditions: NCI-H929 cells preincubated 5 days with 3 μM lenalidomide
Procedure: FIG. 11: Percentage inhibition of viability of lenalidomide-preincubated NCI-H929 cells by HexaBody-DR5/DR5, lenalidomide and the combination thereof. […] Graphs show the mean and SD of duplicate measurements from a representative experiment (n=3).

primary MM cells [2] = conditions: 3 μM, 24 h viability assays on primary MM cells ex vivo
A375 = assay: three-day viability assay (CellTiter-Glo); format: cell-based, human; conditions: A375 melanoma, 3 days
Procedure: (§1) COLO 205 cancer cells were harvested by pooling the culture supernatant containing non-adherent cells and trypsinized adherent cells. The other cell lines were harvested by trypsinization. For trypsinization, adherent cells were incubated with Trypsin-EDTA (Gibco, Cat no 15400-054) diluted in PBS (B.Braun; Cat no 3623140) to a final concentration of 0.05% Trypsin for 2 minutes at 37° C. and passed through a cell strainer. Cells were pelleted by centrifugation for 5 minutes at 1,200 rpm and resuspended at a concentration of 0.5x10^5 cells/mL in culture medium.
(§2) 100 μL of single cell suspensions (5,000 cells per well) were seeded in polystyrene 96-well flat-bottom plates (Greiner Bio-One, Cat no 655180) and allowed to adhere overnight at 37° C. The following day, 50 μL antibody samples (0.002-133 nM final concentrations in 4-fold dilutions) were added to the adherent cells and incubated for 3 days at 37° C. As a positive control in all viability assays, cells were incubated with 5 μM staurosporine (Sigma Aldrich, Cat no S6942), and untreated cells were included as the negative control. The viability of the cultured cells was determined in a CellTiter-Glo Luminescent Cell Viability Assay (Promega, Cat no G7571) that quantifies the presence of ATP, which is an indicator of metabolically active cells. From the kit, 15 μL Luciferin Solution Reagent was added to each well of the viability assay plate. Next, plates were incubated for 1.5 hours at 37° C. 100 μL supernatant was transferred to a white OptiPlate-96 (Perkin Elmer, Cat no 6005299) and luminescence was measured on an EnVision Multilabel Reader (PerkinElmer). Data were analyzed and plotted using non-linear regression (sigmoidal dose-response with variable slope) using GraphPad Prism software. The percentage viable cells was calculated using the following formula: % viable cells=[(luminescence antibody sample−luminescence staurosporine sample)/(luminescence no antibody sample−luminescence staurosporine sample)]×100.

BxPC-3 = assay: three-day viability assay (CellTiter-Glo); format: cell-based, human; conditions: BxPC-3 pancreatic, 3 days
Procedure: as §1, §2

COLO 205 = assay: three-day viability assay (CellTiter-Glo); format: cell-based, human; conditions: COLO 205 CRC, 3 days
Procedure: as §1, §2

HCT-15 = assay: three-day viability assay (CellTiter-Glo); format: cell-based, human; conditions: HCT-15 CRC, 3 days
Procedure: as §1, §2

PANC-1 = assay: three-day viability assay (CellTiter-Glo); format: cell-based, human; conditions: PANC-1 pancreatic, 3 days
Procedure: as §1, §2

SK-MES-1 = assay: three-day viability assay (CellTiter-Glo); format: cell-based, human; conditions: SK-MES-1 NSCLC, 3 days
Procedure: as §1, §2

SNU-5 = assay: three-day viability assay (CellTiter-Glo); format: cell-based, human; conditions: SNU-5 gastric, 3 days
Procedure: as §1, §2

human cancer cell lines = assay: viability assays in various human cancer cell lines (overall); format: cell-based
Procedure: as §1, §2

[3] = tested on: colorectal cancer PDX model CR0126; assay: in vivo anti-tumor activity, PDX model; parameters: species or system mice; conditions: 2 mg/kg QWx2 IV; Mann-Whitney p<0.0379
Procedure: (§3) Immunodeficient 8-13 weeks old female BALB/c athymic nude mice (Beijing HFK Bio-Technology Co. Ltd.) or nu/nu mice (Vital River Laboratories Research Models and Services) were inoculated subcutaneously at the right flank with one tumor fragment (2-3 mm diameter) derived from colorectal cancer PDX model CR0126 or CR3056 at CrownBio, Beijing, China. Earmarks were placed for mouse identification. Tumor volumes were measured at least twice per week using a digital caliper (PLEXX). Tumor volumes (mm^3) were calculated as follows: tumor volume=0.5×(length)×(width)^2. When the mean tumor size reached ˜200 mm^3, mice were divided into groups of 8 mice each, with equal tumor size distribution (average and variance). Mice were treated QW×2 by IV injection of 10 μL IgG1-DR5-01-G56T-E430G+IgG1-DR5-05-E430G per gram body weight: 0.2 mg/mL (2 mg/kg) or 0.05 mg/mL (0.5 mg/kg). For each model, statistical analysis was performed on the last day that all groups were intact.

[4] = tested on: colorectal cancer PDX model CR3056; assay: in vivo anti-tumor activity, PDX model; parameters: species or system mice
Procedure: as §3

[5] = dose range finding study by intravenous infusion, plasma PK; format: in vivo, cynomolgus monkey; conditions: 0.1, 0.5, 5 and 25 mg/kg IV
CDX and PDX mouse models = assay: in vivo anti-tumor response in CDX and PDX mouse models (overall)
Procedure: Therefore, the FIH starting dose of 0.3 mg/kg was considered to be in the lower end of a potential therapeutic dose-range in human patients.

[6] = nonclinical immune agonism / cytokine release assessment
primary MM cells [7] = assay: 24-hour ex vivo viability assay with BMNCs of MM patients, flow cytometry; format: cell-based, human; conditions: 20 μg/mL
NCI-H929 cells [8] = assay: cytotoxicity in NCI-H929 cells with healthy donor PBMCs; format: cell-based, human; conditions: 20 μg/mL, 24 h, absence and presence of healthy donor PBMCs
Procedure: FIG. 12: Inhibition of cell viability by HexaBody-DR5/DR5 in combination with lenalidomide on NCI-H929 cells in presence and absence of healthy donor peripheral blood mononuclear cells (PBMCs) in vitro. (A) Percentage kill of NCI-H929 cells by 20 μg/mL HexaBody-DR5/DR5 after a 24-hour incubation in the absence and presence of healthy donor PBMCs (n=6) in a 40:1 effector to target ratio. Mean and SD are shown. (ns) not significant (paired t-test). […] NCI-H929 cells were incubated with lenalidomide-exposed PBMCs and treated with lenalidomide and/or HexaBody-DR5/DR5 for an additional 24 h. Mean percentage kill and SD is shown. **p<0.005; ***p<0.0005 (paired t-test).
To test possible indirect immunomodulatory effects of lenalidomide on HexaBody-DR5/DR5-mediated killing, PBMCs of healthy donors were preincubated with 3 μM lenalidomide for 5 days. Subsequently, NCI-H929 cells were incubated with 3 μM lenalidomide, lenalidomide-exposed PBMCs and/or 20 μg/mL HexaBody-DR5/DR5 for an additional 24 h.

[9] = cynomolgus monkey, in vivo, iv
[10] = single dose study by intravenous infusion, plasma PK (generic IgG ECLIA); conditions: for Cmax / Tmax / Vd: group mean
[11] = repeat-dose toxicity study, 5 weekly IV infusions (toxicokinetics, NOAEL/HNSTD)
[12] = median over the seven cell lines with >40% max inhibition
[13] = newly diagnosed (ND) patient samples
[14] = relapsed and/or refractory (RR) patient samples
[15] = 1QWx5 IV dosing, GLP toxicity study

Nc1cccc2c1CN(C1CCC(=O)NC1=O)C2=O (stereo not drawn) [lenalidomide]
effect of preincubation on HexaBody-DR5/DR5-mediated kill (NCI-H929 cells [1]): no direct effect
single agent activity (primary MM cells [2]): no single agent activity

HexaBody-DR5/DR5: 1:1 mixture of IgG1-hDR5-01-G56T-E430G and IgG1-hDR5-05-E430G, two non-competing humanized anti-human DR5 IgG1 antibodies
Average IC20 (A375): 0.067 µg/mL
IC20 (A375): 0.445 nM
Max inhibition % (A375): 54.6%
Average IC20 (BxPC-3): 0.102 µg/mL
IC20 (BxPC-3): 0.677 nM
Max inhibition % (BxPC-3): 89.4%
Average IC20 (COLO 205): 0.015 µg/mL
IC20 (COLO 205): 0.103 nM
Max inhibition % (COLO 205): 99.6%
Average IC20 (HCT-15): 0.104 µg/mL
IC20 (HCT-15): 0.692 nM
Max inhibition % (HCT-15): 66.7%
Average IC20 (PANC-1): 0.083 µg/mL
IC20 (PANC-1): 0.554 nM
Max inhibition % (PANC-1): 61.0%
Average IC20 (SK-MES-1): 0.086 µg/mL
IC20 (SK-MES-1): 0.572 nM
Max inhibition % (SK-MES-1): 76.6%
Average IC20 (SNU-5): 0.041 µg/mL
IC20 (SNU-5): 0.274 nM
Max inhibition % (SNU-5): 44.7%
maximal inhibition of viability (human cancer cell lines; in seven of the twelve cell lines tested): more than 40%
IC20 (human cancer cell lines; [12]): 0.554 nM
Overall Median IC20 (human cancer cell lines; [12]): 0.083 µg/mL
tumor growth inhibition [3]: significant tumor growth inhibition
tumor growth inhibition ([4]; 0.5 mg/kg QWx2 IV, Mann-Whitney p<0.0379): significant tumor growth inhibition
tumor growth inhibition ([4]; 2 mg/kg QWx2 IV, Mann-Whitney p<0.0003): significant tumor growth inhibition
increase in exposure with increasing dose, based on nCmax and nAUC0-∞ [5]: proportional increase in exposure
target-mediated clearance (plasma concentration-time profiles) ([5]; single or repeated dose): no indications of target-mediated clearance
In vivo anti-tumor response in CDX and PDX mouse models (CDX and PDX mouse models; dose giving full response): 2 mg/kg
In vivo anti-tumor response in CDX and PDX mouse models (CDX and PDX mouse models; dose giving partial response): 0.5 mg/kg
hazard of acute cytokine-releasing activity [6]: no hazard of acute cytokine-releasing activity has been identified
immune agonistic properties [6]: no immune agonistic properties
median lysis of MM cells (primary MM cells [7]; RR patients under treatment or last treatment shorter than 1 month before BM biopsy): 62%
median lysis of MM cells (primary MM cells [7]; RR patients with last exposure to therapy >1 month before BM biopsy): 23%
median lysis of MM cells (primary MM cells [7]; [13]): 19%
range of lysis of MM cells (primary MM cells [7]; [13]): 3-69%
median lysis of MM cells (primary MM cells [7]; [14]): 43%
range of lysis of MM cells (primary MM cells [7]; [14]): 0-86%
effect of FcγR-mediated crosslinking on cytotoxicity (NCI-H929 cells [8]): did not increase
AUC0-∞ (μg · day/· mL^−1) ([9]; 0.5 mg/kg): 40.3 μg · day/· mL^−1
CL (mL · day^−1/· kg^−1) ([9]; 0.5 mg/kg): 12.6 mL · day^−1/· kg^−1
T1/2 ([9]; 0.5 mg/kg): 83.5 h
nCmax (μg · mL^−1/mg · kg^−1) ([9]; 0.5 mg/kg): 33.5 μg · mL^−1/mg · kg^−1
AUC0-∞ (μg · day/· mL^−1) ([9]; 5 mg/kg): 452.6 μg · day/· mL^−1
CL (mL · day^−1/· kg^−1) ([9]; 5 mg/kg): 11.4 mL · day^−1/· kg^−1
T1/2 ([9]; 5 mg/kg): 110 h
nCmax (μg · mL^−1/mg · kg^−1) ([9]; 5 mg/kg): 27.0 μg · mL^−1/mg · kg^−1
AUC0-∞ (μg · day/· mL^−1) ([9]; 25 mg/kg): 2748 μg · day/· mL^−1
CL (mL · day^−1/· kg^−1) ([9]; 25 mg/kg): 9.10 mL · day^−1/· kg^−1
T1/2 ([9]; 25 mg/kg): 166 h
nCmax (μg · mL^−1/mg · kg^−1) ([9]; 25 mg/kg): 18.8 μg · mL^−1/mg · kg^−1
Cmax ([10]; 0.5 mg/kg single IV): 16.7 µg/mL
Tmax ([10]; 0.5 mg/kg single IV): 1 h
Vd ([10]; 0.5 mg/kg single IV): 0.0635 L/kg
Cmax ([10]; 5 mg/kg single IV): 135.0 µg/mL
Tmax ([10]; 5 mg/kg single IV): 1 h
Vd ([10]; 5 mg/kg single IV): 0.0726 L/kg
Cmax ([10]; 25 mg/kg single IV): 470.3 µg/mL
Tmax ([10]; 25 mg/kg single IV): 3.36 h
Vd ([10]; 25 mg/kg single IV): 0.091 L/kg
increase in exposure with increasing dose, based on nAUC0-∞ ([10]; 0.5 to 25 mg/kg): more or less proportional increase in exposure
increase in exposure, based on nCmax ([10]; between 5 and 25 mg/kg): less than proportional increase in exposure
increase in exposure, based on nCmax ([10]; up to a dose of 5 mg/kg): proportional increase in exposure
HNSTDcyno [11, 15]: 50 mg/kg
NOAELcyno [11, 15]: 50 mg/kg
MRSDhuman (=NOAELcyno/6) ([11]; converted from cynomolgus NOAEL/HNSTD): 8.3 mg/kg
